{"source": "patent US9340538B2", "about": "“Dihydropyrimidine compounds and their application in pharmaceuticals” (SUNSHINE LAKE PHARMA CO., LTD., priority 2013, dated 2016)", "key": {"HBV": {"tested_on": "HBV", "assay": "In-vitro anti-HBV activity in stable HBV-producing cell line (HepG2.2.15), HBV DNA in culture fluid by qPCR", "format": "cell-based", "conditions": "Hepatitis B virus, 168 h; 500 nmol final concentration, HepG2.2.15 cells, HBV DNA in culture media on day 7 post seeding, vs DMSO control; read-out: HBV (% Inh.) (500 nmol)", "procedure": "In-Vitro Anti-HBV Activity of Compounds in Stable HBV-Producing Cell Line (HepG2.2.15)\nHBV DNA contents in cell culture fluid were detected by the qPCR-based assay and percents of HBV inhibition by compounds (% Inh) were calculated. Specific procedures are as follows:\nHepG2.2.15 cells were seeded into each well of 96-well plates, 40,000 cells per well. Cells were treated with cell culture medium containing compounds 24 hours after cell seeding. Each compound to detected percent inhibition was in duplicate and the final concentration of each compound was 500 nmol in each well. The compound-containing mediums were refreshed on day 4 post cell seeding. Culture media were collected from the HepG2.2.15 plates on day 7 post cell seeding followed by HBV DNA extraction.\nHBV DNA extraction: using QIAamp 96 DNA Blood Kit (QIAGEN 51161).\nPCR for quantification: PCR mix was prepared according to PCR system; PCR mix was dispensed to 384-well optical reaction plates (special for quantification); The standard diluted proportionally was added; The sample was added; The plates were sealed with optical adhesive film; PCR system was performed according to programs.\nPercent of HBV inhibition of DNA replication by compound was calculated using the following equation: % Inh.=[1-HBV DNA quantity of sample/HBV DNA quantity of DMSO control]*100. II. Assay Results"}, "[1]": {"assay": "Test compounds' PK assay in ICR mice", "format": "in vivo", "conditions": "mouse, plasma; for AUC(0-t): AUC in 0-24 hours; for AUC(0-inf): AUC in 0 hour to infinite time", "procedure": "The test compounds were poured into ICR mice stomach through mouth with 10 mg/kg or administered 2 mg/kg or 10 mg/kg to ICR mice by tail-intravenous injection. Blood sample of orbital vein was taken at 0.083, 0.25, 0.5, 1, 2, 4, 6, 8 and 24 hours after administration, and collected in anticoagulation tube added with EDTA-K2. The test compounds were extracted from plasma samples and chromatographed on a tandem mass spectrometer. Quantitation was performed using multiple reaction monitoring (MRM). Pharmacokinetic parameters were calculated using WinNonlin 6.1 software with non compartment model."}}}
{"smiles": "CCOC(=O)C1=C(CN2CCOC(CCC(=O)O)C2)NC(c2nccs2)=NC1c1ccc(F)cc1Br", "note": "(centres unmarked) [Example 129, 3-(4-((6-(2-bromo-4-fluorophenyl)-5-(ethoxycarbonyl)-2-(thiazol-2-yl)-3,6-dihydropyrimidin-4-yl)methyl)morpholin-2-yl)propanoic acid]", "values": [{"measurement": "inhibition at 0.5 µM", "setting": "HBV", "value": 92, "unit": "%"}, {"measurement": "Cmax", "setting": "[1]; iv, 2 mg/kg", "value": 3860, "unit": "ng/mL"}, {"measurement": "Tmax", "setting": "[1]; iv, 2 mg/kg", "value": 4.8, "unit": "min"}, {"measurement": "clearance", "setting": "[1]; iv, 2 mg/kg", "value": 20.3, "unit": "mL/min/kg"}, {"measurement": "half-life", "setting": "[1]; iv, 2 mg/kg", "value": 2.42, "unit": "h"}, {"measurement": "AUC(0-t)", "setting": "[1]; iv, 2 mg/kg", "value": 1630, "unit": "ng·h/mL"}, {"measurement": "AUC(0-inf)", "setting": "[1]; iv, 2 mg/kg", "value": 1640, "unit": "ng·h/mL"}, {"measurement": "Vd", "setting": "[1]; iv, 2 mg/kg, read-out: Vss", "value": 0.9, "unit": "L/kg"}, {"measurement": "Cmax", "setting": "[1]; po, 10 mg/kg", "value": 8610, "unit": "ng/mL"}, {"measurement": "Tmax", "setting": "[1]; po, 10 mg/kg", "value": 4.8, "unit": "min"}, {"measurement": "half-life", "setting": "[1]; po, 10 mg/kg", "value": 6.62, "unit": "h"}, {"measurement": "AUC(0-t)", "setting": "[1]; po, 10 mg/kg", "value": 5330, "unit": "ng·h/mL"}, {"measurement": "AUC(0-inf)", "setting": "[1]; po, 10 mg/kg", "value": 5350, "unit": "ng·h/mL"}, {"measurement": "bioavailability", "setting": "[1]; po, 10 mg/kg, read-out: F (absolute bioavailability)", "value": 65.2, "unit": "%"}]}
